According to patent publication US7629313B2, “Immunomodulatory polymeric antigens for treating inflammatory pathologies” (Eli Lilly and Company, priority 2003, dated 2009):

Tests used:
[1] = tested on: human monocyte-derived iDC; assay: Uptake of fluorescent polymer by iDCs, confocal microscopy; format: cell-based; settings: two minutes incubation at 37° C.; labeled Compound 15 50 μg/ml, FITC-dextran 1 mg/ml
Method: Oregon-green labeled Compound 15 is prepared as described in PCT International Publication WO 01/79242. Briefly, Oregon-green (Molecular Probes, Eugene, Oreg.)-conjugated Lipid II is included in an MtgA-polymerization reaction at a ratio of 1:4 with unlabeled Lipid 11 to produce a 25% Oregon-green labeled polymer. The polymeric material is purified and treated as previously described. For uptake studies, fluorescent Compound 15 at a final concentration of 50 μg/ml, or Lysine-fixable FITC-conjugated dextran (40 kDa size, Molecular Probes, Eugene, Oreg.) at 1 mg/ml, is incubated with human monocyte-derived iDC prepared as described in Example 5 for two minutes at 37° C. After incubation, extracellular probe is removed by washing the cells four times in ice cold complete DC medium (Example 5). Washed cells are then incubated at 37° C. and staining is stopped at two-minute intervals by washing in 1% paraformaldehyde fix diluted in flow wash solution (which also contains the metabolic poison sodium azide; protocol described in Example 5). Glass slide samples are prepared at each time interval and sealed with clear nail polish. Samples are stored at −20° C. and protected from light until analysis on a Radiance 2100 confocal microscope (BioRad Laboratories, Hercules, Calif.).

[2] = tested on: human monocyte-derived dendritic cells; assay: Kinetics of fluorescent polymer uptake by iDCs, flow cytometry; format: cell-based; settings: labeled Compound 15 50 μg/ml, FITC-dextran 1 mg/ml
Method: In these experiments, human monocyte-derived dendritic cells are prepared as described in Example 5. Dendritic cells are resuspended at 5×10^5 cells/sample and incubated […] at 37° C. At the start of each time course, cells are incubated with either fluorescent Compound 15 at a final concentration of 50 μg/ml or Lysine-fixable FITC-conjugated dextran (40 kDa size, Molecular Probes, Eugene, Oreg.) at 1 mg/ml. At 0, 2, 10, 20, 30, 40, and 50 minutes after the start of incubation, uptake is stopped by washing the cells with four washes of ice cold flow wash buffer (Example 5). The washed cells are fixed in paraformaldehyde also as described in Example 5. Stained, fixed cells are stored at 4° C. protected from light until analysis using a FC500 flow cytometer (Beckman Coulter, Miami, Fla.). Once cells are correctly gated for forward and side scatter profiles, mean fluorescent intensity of the population is evaluated for 10,000 cells/sample. […] To control for non-specific adhesion of the molecules to the cell surface (which could be read as a positive in this assay), cells are also incubated with fluorescent polymers at 0° C. […] At this temperature, signal from neither the control molecule (FITC-dextran) nor Compound 15 increases over time (FIG. 5).

## FITC-Dextran
[1]
  Intracellular localization of polymer in iDCs (confocal images): Localization of polymer in endocytic vacuoles
[2]
  Uptake by DC at 0° C. (cells metabolically inactive): inhibited
